Measurements: patent publication US20070142638A1, “Ornithine derivatives as prostaglandin e2 agonists or antagonists” (Astellas Pharma Inc., priority 2003, published 2007)

Biological target: T1, prostanoid receptor subtype (human EP4) (Homo sapiens, UniProt P35408)
T1 construct: expressed in transfected cells; host or cells: COS-7 cells (membrane fraction)
Test: Binding assay using membrane preparation with the expression of prostanoid receptor subtype
Settings: test compound at 1.0×10^−8 M (10 nM); competition with [^3H]-PGE2 10 nM; membrane fraction of COS-7 cells transfected with human EP4
Method: The radioactivity associated with the filter was measured by liquid scintillation counting.
The following buffer was used in all reactions.

T1 sequence (P35408 whole entry): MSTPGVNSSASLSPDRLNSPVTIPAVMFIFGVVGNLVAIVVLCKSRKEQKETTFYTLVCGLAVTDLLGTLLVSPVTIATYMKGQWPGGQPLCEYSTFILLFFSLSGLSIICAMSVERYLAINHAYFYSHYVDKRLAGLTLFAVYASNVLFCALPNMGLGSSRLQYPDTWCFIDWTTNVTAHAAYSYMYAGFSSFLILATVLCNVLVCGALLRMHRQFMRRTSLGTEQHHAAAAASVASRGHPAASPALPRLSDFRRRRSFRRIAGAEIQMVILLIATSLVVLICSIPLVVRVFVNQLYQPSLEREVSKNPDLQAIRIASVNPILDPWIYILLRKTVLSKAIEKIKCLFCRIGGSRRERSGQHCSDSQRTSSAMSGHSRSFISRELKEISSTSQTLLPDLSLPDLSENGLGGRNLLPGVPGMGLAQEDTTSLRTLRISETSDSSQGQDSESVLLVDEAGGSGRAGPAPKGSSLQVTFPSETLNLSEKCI

O=C(O)CCCCCNC(=O)[C@H](CCCNC(=O)OCc1ccccc1)NC(=O)c1cc2ccccc2o1 [Example 23, Sodium 6-{(2S)-2-[(1-benzofuran-2-yl-carbonyl)-amino]-5-[benzyloxycarbonylamino]pentanoylamino}-hexanoate]
inhibition at 0.01 µM: ≥ 80%
